Tests used:
786-O-Hif-Luc cells = assay: Luciferase Assay; type: cell-based; details: about 24 hours, read-out: Mean Luciferease EC50
Protocol: A pool of infected cells were then selected against 2 μg/mL of puromycin (P8833, Sigma) for 10 days followed by limited dilution to select single clones.
Each concentration was tested in triplicate. After about 24 hours, luciferase activity was determined using ONE-Glo Luciferase Assay Reagent (E6110, Promega) following the manufacturer's recommended procedure. EC50 were calculated by using Dotmatics software.

[1] = test system: HIF-2α HIS TAG-PASB Domain; assay: HIF-2α Scintillation Proximity Assay (SPA); type: binding
Protocol: The percent inhibition was determined and IC50 values were calculated using the Dotmatics system based on the following equation: % inhibition=[(high control−sample)/(high control−low control)]×100.

786-O cells = assay: VEGF ELISA Assay; type: cell-based
Protocol: Each concentration had duplicated wells. About 20 hours later, medium was removed by suction and each well was supplied with 180 μL of growth medium. About 20 μl freshly-made 10× compound stocks were added to each well. […] The EC50 was calculated by GraphPad Prism using the dose-response-inhibition (four parameter) equation. The cell seeded plate was then subjected to CellTiter-Glo luminescence cell viability assay (Promega) by adding 50 μL of Celltiter Glo reagent into each well and shaking the plate for 8 minutes at 550 rpm (Thermomixer R, Eppendorf) then read luminescence signal in plate reader (3 second delay, 0.5 second/well integration time, Synergy 2 multi Detection Microplate reader) immediately.

[2] = test system: 786-O renal cell carcinoma xenograft; assay: In vivo efficacy study, 786-O xenograft; set-up: species or system SCID/Biege mice; details: for Tumor size Mean ± SEM: after 20 days of dosing
mouse kidney = assay: In vivo PK/PD study, kidney mRNA levels by qRT-PCR; set-up: species or system SCID/Biege mice; details: FIG. 3
Protocol: About 5×10^6 renal cell carcinoma 786-O tumor cells (ATCC® CRL-1932™, VHL and HIF-1α null cell line) in PBS and Matrigel (1:1 in volume) were injected subcutaneously at the right flanks of SCID/Biege mice at 6-7 weeks of age for xenograft development. When the xenografts reached about 450 mm^3 in size, the tumor bearing mice were randomly divided into 4 groups (n=4). Plasma was collected prior to treatment by retro-orbital bleeding. […] All animals were sacrificed at 12 hours post last dose. Tumor, kidney, and plasma were collected from each animal. Total RNA was extracted from the tumors and kidneys. The mRNA levels of HIF-1α, HIF-2α and their respective target genes were determined by qRT-PCR (FIG. 1).

human VEGFA [3] = assay: plasma human VEGF level of 786-O xenograft bearing mice; type: in vivo; details: 10, 30 and 100 mg/kg three times at 12 hour intervals, 12 h post treatment vs prior to treatment, FIG. 5
[4] = test system: renal cell carcinoma 786-O xenograft; assay: tumor size in 786-O xenograft bearing mice, single agent; type: in vivo; details: 3, 10, 30 and 100 mg/kg BID for 20 days, FIG. 7
human VEGFA [5] = assay: In vivo PK/PD study, plasma human VEGFA by ELISA; set-up: species or system SCID/Biege mice; details: 786-O tumor-bearing mice; 10, 30 or 100 mg/kg; FIG. 5

Row | Structure (SMILES) | EC50 (786-O-Hif-Luc cells) | IC50 [1] | other results
1 | C=CCN=S(=O)(c1ccc(Oc2cc(F)cc(C#N)c2)c2c1[C@H](O)C(F)(F)C2)C(F)(F)F (single isomer, unassigned) [Compound 308] | 690 nM | 68 nM | 
2 | N#Cc1cc(F)cc(Oc2ccc(S(=N)(=O)CF)c3c2CC(F)(F)[C@H]3O)c1 (single isomer, unassigned) [Example 275] | 260 nM | 76 nM | 
3 | N#CN=S(=O)(CF)c1ccc(Oc2cc(F)cc(C#N)c2)c2c1[C@H](O)[C@H](F)C2 (single isomer, unassigned) [Example 276] | 150 nM | 58 nM | 
4 | N#CN=S(=O)(CF)c1ccc(Oc2cc(F)cc(C#N)c2)c2c1[C@H](O)C(F)(F)C2 (single isomer, unassigned) [Example 286] | 140 nM | 24 nM | 
5 | N#Cc1cc(F)cc(Oc2ccc(S(=O)(=O)C(F)F)c3c2CC(F)(F)[C@H]3O)c1 [Compound 15, 3-[(1S)-7-(difluoromethylsulfonyl)-2,2-difluoro-1-hydroxy-indan-4-yl]oxy-5-fluoro-benzonitrile] |  |  | Tumor size Mean ± SEM ([2]; 3 mg/kg BID): 136.29 ± 15.77 mm^3; Tumor size Mean ± SEM ([2]; 10 mg/kg BID): 45.36 ± 2.22 mm^3; Tumor size Mean ± SEM ([2]; 30 mg/kg BID): 35.63 ± 2.26 mm^3; Tumor size Mean ± SEM ([2]; 100 mg/kg BID): 37.11 ± .6 mm^3; Tumor size change vs vehicle ([2]; 3, 10, 30 and 100 mg/kg BID, 20 days, t-Test): statistically significant reduction of tumor size; Kidney EPO mRNA level (mouse kidney): reduced; Kidney PGK1 mRNA level (mouse kidney): remained unchanged; plasma level of human VEGFA (human VEGFA [3]): reduced; tumor size [4]: tumor size reduction and regression; plasma level of human VEGFA (human VEGFA [5]): significant reduction
6 | O=S(=O)(c1ccc(Oc2cc(F)cc(Cl)c2)c(Br)c1)C(F)(F)F [Compound 116, 2-Bromo-1-(3-chloro-5-fluorophenoxy)-4-((trifluoromethyl)sulfonyl)benzene] | 3500 nM | 150 nM | 
7 | O=S(=O)(c1ccc(Oc2cc(F)cc(Cl)c2)c(Cl)c1)C(F)(F)F [Compound 128, 2-Chloro-1-(3-chloro-5-fluorophenoxy)-4-((trifluoromethyl)sulfonyl)benzene] | 3000 nM | 150 nM | 
8 | N#Cc1cc(F)cc(Oc2ccc(S(=N)(=O)C(F)(F)F)c3c2CCC3O)c1 (stereo not drawn) [Compound 259, 3-Fluoro-5-((1-hydroxy-7-(S-(trifluoromethyl)sulfonimidoyl)-2,3-dihydro-1H-inden-4-yl)oxy)benzonitrile] | 2000 nM | 1200 nM | 
9 | N#Cc1cc(F)cc(Oc2ccc(S(=O)(=O)C(F)(F)F)c3c2CC(F)C3N)c1 (stereo not drawn) [Compound 265, 3-((1-amino-2-fluoro-7-((trifluoromethyl)sulfonyl)-2,3-dihydro-1H-inden-4-yl)oxy)-5-fluorobenzonitrile] | 900 nM | 90 nM | 
10 | N#Cc1cncc(Oc2ccc(S(=N)(=O)C(F)(F)F)c3c2CC(F)(F)[C@H]3O)c1 (stereo partly drawn) [Example 315, 5-(((1S)-2,2-difluoro-1-hydroxy-7-(S-(trifluoromethyl)sulfonimidoyl)-2,3-dihydro-1H-inden-4-yl)oxy)nicotinonitrile] | 110 nM | 23.2 nM | 

More lines, main results first:

Row | EC50 (786-O-Hif-Luc cells) | IC50 [1] | Structure (SMILES) | other results
11 | 61 nM | 32 nM | CS(=O)(=NC#N)c1ccc(Oc2cc(F)cc(C#N)c2)c2c1[C@H](O)C(F)(F)C2 (single isomer, unassigned) [Example 245] | EC50 (786-O cells; 786-O cells): 160 nM
12 | 74 nM | 135 nM | N#CN=S(=O)(CF)c1ccc(Oc2cc(F)cc(C#N)c2)c2c1[C@H](O)[C@H](F)C2 (single isomer, unassigned) [Example 277] | 
13 | 13 nM | < 5 nM | N#Cc1cc(F)cc(Oc2ccc(S(=N)(=O)C(F)(F)F)c3c2CC(F)(F)[C@H]3O)c1 (single isomer, unassigned) [Example 305] | EC50 (786-O cells; Homo sapiens, 786-0, 786-O cells): 19.5 nM
14 | 30 nM | < 5 nM | N#Cc1cc(F)cc(Oc2ccc(S(=N)(=O)C(F)(F)F)c3c2CC(F)(F)[C@H]3O)c1 (single isomer, unassigned) [Example 306] | EC50 (786-O cells; 786-O cells): 19.2 nM
15 | 12 nM | < 5 nM | CS(=O)(=NC#N)c1ccc(Oc2cc(F)cc(C#N)c2)c2c1[C@H](O)C(F)(F)[C@@H]2F (single isomer, unassigned) [Example 317] | EC50 (786-O cells; 786-O cells): 14 nM

From US9896418B2, “Aryl ethers and uses thereof” (Peloton Therapeutics, Inc., priority 2013, dated 2018)
